Article PMC9688798, “Dual-Wavelength Fluorescence Polarization Immunoassay for Simultaneous Detection of Sulfonamides and Antibacterial Synergists in Milk” (Biosensors, 2022)
In brackets after ≈: the same amount, converted by molar mass. Values belong to the compound of their own block, whether it stands above or below them.

Key:
[1] = system: mAb 10E6; test: DWFPIA for SAs (tracer SADMPM-HDF, λex 480 nm/λem 535 nm); assay type: binding; settings: for IC50: 480 nm/535 nm
Method: (§1) For single format FPIA, 70 μL/well of a standard analyte solution, 70 μL/well of tracer, and 70 μL/well mAb were added to the 96-well low-adsorption microplate. After incubation for 2 min in the dark, FP values were measured at λex 480 nm and λem 535 nm for the SAs tracers (SADMPM-EDF, SADMPM-BDF, and SADMPM-HDF) or at λex 620 nm and λem 688 nm for the ASGs tracers (HaptenA-DSCA, HaptenA-DSCH, and HaptenA-AF647). For DWFPIA detection, 70 μL/well standard cocktail solutions were mixed with 70 μL/well of tracer cocktail solutions in the working dilution and 70 μL/well of mAb cocktail solutions in the working dilution. After incubation for 2 min in the dark, the corresponding signals of the tracers were collected simultaneously.
(§2) The procedure to develop the standard curves of DWFPIA for the simultaneous detection of SMZ and TMP was follows: the standard cocktail solutions were prepared by mixing an equal quantity of the standard of SMZ and TMP. Subsequently, the optimum two tracers for each mAbs were added with equal volumes, and then mixed with the two mAbs against SMZ and TMP. The other steps followed the above protocol for FPIA. […] Y = (A − D)/[1 + (X/C) ^B] + D(1) where Y represents the FP value for the corresponding different concentrations of the standard (analyte); A and D represent the asymptotic maximum and minimum of the FP values, respectively; and B is the slope of the curve at the inflection point. C is the IC50 value that defines the standard concentration of SMZ or TMP (analyte) at 50% tracer binding, and X is SMZ/TMP in various concentrations. Furthermore, IC20–IC80 was calculated as the detectable range of the DWFPIA. According to the following equation, the cross reactivity (CR) of the DWFPIA was acquired as follows:CR= (IC50 of SMZ or TMP)/(IC50 of analyte compound) × 100%(2)
(§3) To obtain a sensitive FPIA, the effects of some physicochemical conditions on DWFPIA were evaluated by comparing the δmP/IC50 ratios under various conditions, including pH and organic solvents. Based on the optimal antibody–tracer pairs, pH values of 6.0, 7.0, 8.0, and 9.0 were tested and the other parameters of the assay remain unchanged. To clarify the effects of organic solvents on the development of DWFPIA, various concentrations of methanol and acetonitrile were tested, that is, 0%, 2.5%, 5%, 10%, 20%, and 30% (v/v) for methanol and 0%, 2.5%, 5%, 10%, and 20% (v/v) for acetonitrile. SMZ and TMP were used as the reference analyte in DWFPIA optimization to construct standard curves, seperately.

[2] = system: mAb 9C9; test: DWFPIA for ASGs (tracer HaptenA-DSCA, λex 620 nm/λem 688 nm); assay type: binding
Method: as §1, §2, §3

[3] = system: cocktail mAbs of 10E6 and 9C9; test: Nonspecific binding analysis with cocktail mAbs; settings: λex/λem 480/535 nm, working concentration
Method: The detection system of DWFPIA consists of two distinct fluorescence signals; moreover, the interference between the short-wavelength fluorescein (EDF/BDF/HDF) and the long-wavelength fluorescein (DSCA/DSCH/AF647) could be ignored, according to our previous studies. Furthermore, the nonspecific binding was analyzed by comparing the FP changes of each tracer (or the tracer cocktail) upon the addition of the free, specific, non-specific, and cocktail mAbs at working concentrations. […] At 620 nm/688 nm, the binding of the tracer HaptenA-DSCA and its corresponding antibody mAb 9C9 was not affected by the presence of non-specific mAb 10E6, as shown in Figure 3A.

[4] = system: mAb 10E6; test: FPIA tracer-antibody binding, antibody dilution and SMZ competition with mAb 10E6; settings: λex/λem 480/535 nm, working concentration
Method: as §1, with “After incubation for 2 min in the dark, the corresponding signals of the tracers were collected simultaneously.” left out
In DWFPIA, we mainly focused on three analytical parameters to select the optimum antibody–tracer pairs, including the half-maximal inhibitory concentration (IC50), the detection window (δmP = mPmax − mPmin), and the titer of the mAbs. […] The IC50 of DWFPIA based on the antibody–tracer pairs was assessed according to standard curves, as described in Section 2.3.3. δmP was the difference between the observed maximum FP value of the tracer bound to a saturating amount of antibody (mPmax) and the observed minimum FP value of the free tracer (mPmin). […] In addition, the binding abilities of the tracers and mAbs were assessed. […] According to the antibody dilution curve, the titer of the mAbs utilized for each tracer that satisfied the δmP criterion was calculated. […]

[5] = final concentration of 10% acetonitrile

- IC50 ([1]; analyte in mixed format (standard cocktail)): 4.67 ng/mL (≈ 16.8 nM)
- IC50 ([1]; analyte in single format, tracer and mAb cocktail): 4.55 ng/mL (≈ 16.3 nM)
SMILES: Cc1cc(C)nc(NS(=O)(=O)c2ccc(N)cc2)n1 [SMZ, Sulfamethazine]
- δmP ([1]; 10% final acetonitrile concentration): < 80 mP
- CRs ([1]; cross reactivity = IC50 of SMZ / IC50 of analyte × 100%): 100%

- IC50 ([2]; analyte in mixed format (standard cocktail), 620 nm/688 nm): 1.12 ng/mL (≈ 3.86 nM)
- IC50 ([2]; analyte in single format, tracer and mAb cocktail, 620 nm/688 nm): 1.06 ng/mL (≈ 3.65 nM)
- IC50 [2, 5]: 1.7 ng/mL (≈ 5.86 nM)
- IC50 ([2]; without acetonitrile (start of the change)): 1.1 ng/mL (≈ 3.79 nM)
SMILES: COc1cc(Cc2cnc(N)nc2N)cc(OC)c1OC [TMP, Trimethoprim]
- CRs ([2]; cross reactivity = IC50 of TMP / IC50 of analyte × 100%): 100%
- δmP [2, 5]: greater than 80 mP

- Fluorescence Polarization, tracer and cocktail mAbs [3]: 178.8 mP
- Fluorescence Polarization, tracer and mAb 10E6 [4]: 178.6 mP
SMILES: Cc1nc(NS(=O)(=O)c2ccc(N)cc2)nc(C)c1CCCCC(=O)NCCCCCCNC(=S)Nc1ccc2c(c1)C(=O)OC21c2ccc(O)cc2Oc2cc(O)ccc21 [SADMPM-HDF]
